The compounds below were run against CDK4/cyclinD1 enzyme complex (Homo sapiens, UniProt P11802) (assay: In vitro scintillation proximity assay (SPA) for CDK4 inhibitory activity). Details: GST-pRb substrate, 33P-ATP, 25° C. 30 minutes, read-out: cdk4 SPA see C.4 (pIC50) (converted).
Format: biochemical
Method: Compounds of the present invention were tested in an in vitro assay based on SPA technology.
In principle, the assay relies upon the well established SPA technology for the detection of CDK4 phosphorylated proteins, i.e pRb. This phosphorylation is performed using I0 CDK4/cyclinD1 enzyme complex and ^33P-ATP as phosphor donor.
The CDK4 SPA kinase reaction is performed at 25° C. for 30 minutes in a 96-well microtiter plate. The 100 μl reaction volume contains 40 mM Hepes, 6 mM NaF, 6 mM MgCl2, 0.6 mM Na3VO4, 2 μg/ml Pepstatin, 2 μg/ml Leupeptin, 2 μg/ml Aprotinin, 50 μg/ml TLCK, 150 μg/ml DTT, 0.3 μg/ml benzamide, 0.1 μCi ^33P-ATP, 1.7 μg GST-pRb, 50 ng CDK4/cyclinD1/well and 0.2% compound in 100% DMSO. The reaction is stopped by adding to each well 100 μl of the glutathione coated SPA beads (10 mg/ml in PBS+10 mM EDTA+100 μM ATP+0.05% Triton X 100). The plates are then shaked at 300 rpm for 30 min to allow binding of the GST-tagged substrate to the glutathione coated beads. The beads are allowed to settle at the bottom of the plate for 30 minutes. The microtiterplates are centrifuges at 800 rpm for 10 minutes and the amount of phosphorylated (^33P) substrate is determined by counting (30 sec/well) in a microtiterplate scintillation counter.
(§1) For each experiment, controls (containing enzyme (complex) and DMSO without compound), a blank incubation (containing DMSO but no enzyme (complex) or compound) and samples (containing enzyme (complex) and compound dissolved in DMSO) were run in parallel. All compounds tested were dissolved and eventually further diluted in DMSO. […] In each test, the blank value was subtracted from both the control and the sample values. The control sample represented maximal enzyme activity. For each sample, the amount of cpm was expressed as a percentage of the mean cpm value of the controls. When appropriate, IC50-values (concentration of the drug, needed to reduce the enzyme activity to 50% of the control) were computed using linear interpolation between the experimental points just above and below the 50% level. Herein the effects of test compounds are expressed as pIC50 (the negative log value of the IC50-value).

CDK4/cyclinD1 enzyme complex, sequence (P11802 whole entry): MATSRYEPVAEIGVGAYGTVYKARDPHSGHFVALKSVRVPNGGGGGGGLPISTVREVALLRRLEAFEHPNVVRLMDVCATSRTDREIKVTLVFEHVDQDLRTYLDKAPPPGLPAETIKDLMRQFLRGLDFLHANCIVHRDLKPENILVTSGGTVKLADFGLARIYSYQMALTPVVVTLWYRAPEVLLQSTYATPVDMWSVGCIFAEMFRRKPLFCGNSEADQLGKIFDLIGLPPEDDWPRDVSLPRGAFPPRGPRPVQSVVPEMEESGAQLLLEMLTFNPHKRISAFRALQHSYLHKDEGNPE
CDK4/cyclinD1 enzyme complex, sequence (P24385 whole entry partner): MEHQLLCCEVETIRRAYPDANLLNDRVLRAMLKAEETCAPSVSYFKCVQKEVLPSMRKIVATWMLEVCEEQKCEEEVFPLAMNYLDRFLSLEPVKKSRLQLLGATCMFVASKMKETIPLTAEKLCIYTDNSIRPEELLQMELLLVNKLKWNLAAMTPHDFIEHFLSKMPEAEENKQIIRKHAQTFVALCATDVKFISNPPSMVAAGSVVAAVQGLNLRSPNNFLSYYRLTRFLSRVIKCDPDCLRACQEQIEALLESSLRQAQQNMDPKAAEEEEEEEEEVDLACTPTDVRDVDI

| IC50 [nM] | Structure (SMILES) |
| --- | --- |
| 50.1 | OCCCC1CCN(c2ccc(Nc3ncc4cnn(C5CCCC5)c4n3)cc2)CC1 [compound 13] |
| 6.31 | CN1CCN(c2ccc(Nc3ncc4cnn(C5CCCC5)c4n3)cc2)CC1 [compound 11] |
| 20 | c1cc(N2CCOCC2)ccc1Nc1ncc2cnn(C3CCCCC3)c2n1 [compound 12] |
| 1000 | O=c1[nH]n(C2CCCCC2)c2nc(Nc3ccc(N4CCC(CCCO)CC4)cc3)ncc12 [compound 94] |
| 631 | O=c1[nH]c2cnc(Nc3ccc(N4CCOCC4)cc3)nc2n1C1CCCCC1 [compound 78] |
| 1260 | CN1CCN(c2ccc(Nc3ncc4c(=O)[nH]n(C5CCCC5)c4n3)cc2)CC1 [compound 91] |

These compounds were tested against AURORA B (Homo sapiens, UniProt Q96GD4) (assay: In vitro filtration assay for AURORA B inhibitory activity). Details: peptide (C(LRRWSLG)×4), 1 μM unlabeled ATP, 25° C. 40 minutes, read-out: Aurora B see C.3 (pIC50) (converted).
AURORA B, sequence (Q96GD4 whole entry): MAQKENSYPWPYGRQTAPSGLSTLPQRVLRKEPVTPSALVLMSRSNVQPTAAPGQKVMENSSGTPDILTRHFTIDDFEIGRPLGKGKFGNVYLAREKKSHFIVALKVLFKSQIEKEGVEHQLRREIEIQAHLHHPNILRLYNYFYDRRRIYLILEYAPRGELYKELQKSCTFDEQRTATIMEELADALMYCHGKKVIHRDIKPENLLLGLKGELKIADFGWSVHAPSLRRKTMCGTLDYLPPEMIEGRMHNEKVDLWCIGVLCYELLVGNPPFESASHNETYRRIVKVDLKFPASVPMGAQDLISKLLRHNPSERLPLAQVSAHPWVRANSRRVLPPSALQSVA
Format: biochemical
Method: (§2) Compounds of the present invention were tested in an in vitro filtration assay assessing AURORA B activity by means of its substrate-phosphorylation activity using [^33P]-ATP as phosphor donor. The radioactive phosphorylated substrate is then captured on filtermats and the incorporated [^33P] quantitated using a phosphorage storage screen.
The Aurora-B kinase reaction is performed at 25° C. for 40 minutes in a 96-well microtiterplate. The 25 μl reaction volume contains 60 mM Hepes pH 7.5, 3 mM MgCl2, 3 mM MnCl2, 3 μM Na3VO4, 50 μg/ml PEG20000, 1 μM unlabeled ATP, 1 mM DTT, 0.2 μCi AT^33P, 0.25 μg/well peptide (C(LRRWSLG)×4),100 ng Aurora-B/well and 0.2% compound in 100% DMSO. The reaction is stopped by adding 5 μl of a 3% phosphoric acid solution. 10 μl of the reaction mixture is then spotted onto a Filtermat P30 filter (Wallac) and washed 3 times for 5 min. in 75 mM phosphoric acid and 1 time for 5 min. in methanol prior to drying and quantification on the Typhoon (Amersham) using a phosphorage storage screen.
as §1

| IC50 [nM] | Structure (SMILES) |
| --- | --- |
| > 10000 | OCCCC1CCN(c2ccc(Nc3ncc4cnn(C5CCCC5)c4n3)cc2)CC1 [compound 13] |
| 398 | CN1CCN(c2ccc(Nc3ncc4cnn(C5CCCC5)c4n3)cc2)CC1 [compound 11] |
| 251 | c1cc(N2CCOCC2)ccc1Nc1ncc2cnn(C3CCCCC3)c2n1 [compound 12] |
| > 10000 | O=c1[nH]n(C2CCCCC2)c2nc(Nc3ccc(N4CCC(CCCO)CC4)cc3)ncc12 [compound 94] |
| > 10000 | CN1CCN(c2ccc(Nc3ncc4c(=O)[nH]n(C5CCCC5)c4n3)cc2)CC1 [compound 91] |
| 501 | c1cc(Nc2ncc3cnn([C@H]4C[C@@H]5CC[C@H]4C5)c3n2)ccc1CNCCN1CCOCC1 [compound 65] |
| 1000 | CN1CCC(NCc2ccc(Nc3ncc4cnn([C@H]5C[C@@H]6CC[C@H]5C6)c4n3)cc2)CC1 [compound 69] |
| 6310 | CN1CCC(N(Cc2ccc(Nc3ncc4cnn(C5CCCCC5)c4n3)cc2)C(=O)OC(C)(C)C)CC1 [compound 62] |
| > 10000 | c1ccc(N2CCN(Cc3ccc(Nc4ncc5cnn(C6CCCCC6)c5n4)cc3)CC2)nc1 [compound 35] |
| > 10000 | CN1CCC(NCc2ccc(Nc3ncc4cnn(C5CCCCC5)c4n3)cc2)CC1 [Co. No. 60] |

The compounds below were run against CDK4/cyclinD1 (Homo sapiens, UniProt P11802) (assay: In vitro filtration assay for CDK4 inhibitory activity (pRb phosphorylation, [33P]-ATP)). Details: GST-pRb substrate, 1 μM unlabeled ATP, 25° C. 45 minutes, read-out: cdk4 filter (pIC50) (converted).
CDK4/cyclinD1, sequence (P11802 whole entry): as the sequence (P11802 whole entry) above
CDK4/cyclinD1, sequence (P24385 whole entry partner): as the sequence (P24385 whole entry partner) above
Format: biochemical
Method: as §2, with “CDK4” for “AURORA B”, “pRb-phosphorylation” for “substrate-phosphorylation”, “pRb” for “substrate”
The CDK4 kinase reaction is performed at 25° C. for 45 minutes in a 96-well microtiterplate. The 25 μl reaction volume contains 50 mM Hepes pH 7.5, 10 mM NaF, 10 mM MgCl2, 1 mM Na3VO4, 1 μM unlabeled ATP, 1 mM DTT, 0.5 μCi AT^33P, 0.76 μg/well GST-pRb, 50 ng CDK4/cyclinD1/well and 0.2% compound in 100% DMSO.
(§3) The reaction is stopped by adding 5 μl of a 3% phosphoric acid solution. 10 μl of the reaction mixture is then spotted onto a Filtermat P30 filter (Wallac) and washed 3 times for 5 min. in 75 mM phosphoric acid and 1 time for 5 min. in methanol prior to drying and quantification on the Typhoon (Amersham) using a phosphorage storage screen.
as §1

| IC50 [nM] | Structure (SMILES) |
| --- | --- |
| 63.1 | OCCCC1CCN(c2ccc(Nc3ncc4cnn(C5CCCC5)c4n3)cc2)CC1 [compound 13] |
| 31.6 | CN1CCN(c2ccc(Nc3ncc4cnn(C5CCCC5)c4n3)cc2)CC1 [compound 11] |
| 39.8 | c1cc(N2CCOCC2)ccc1Nc1ncc2cnn(C3CCCCC3)c2n1 [compound 12] |
| 1580 | O=c1[nH]n(C2CCCCC2)c2nc(Nc3ccc(N4CCC(CCCO)CC4)cc3)ncc12 [compound 94] |
| 1000 | O=c1[nH]c2cnc(Nc3ccc(N4CCOCC4)cc3)nc2n1C1CCCCC1 [compound 78] |
| 631 | CN1CCN(c2ccc(Nc3ncc4c(=O)[nH]n(C5CCCC5)c4n3)cc2)CC1 [compound 91] |
| 200 | c1cc(Nc2ncc3cnn([C@H]4C[C@@H]5CC[C@H]4C5)c3n2)ccc1CNCCN1CCOCC1 [compound 65] |
| 25.1 | CN1CCC(NCc2ccc(Nc3ncc4cnn([C@H]5C[C@@H]6CC[C@H]5C6)c4n3)cc2)CC1 [compound 69] |
| 25.1 | CN1CCC(N(Cc2ccc(Nc3ncc4cnn(C5CCCCC5)c4n3)cc2)C(=O)OC(C)(C)C)CC1 [compound 62] |
| 100 | c1ccc(N2CCN(Cc3ccc(Nc4ncc5cnn(C6CCCCC6)c5n4)cc3)CC2)nc1 [compound 35] |
| 7.94 | CN1CCC(NCc2ccc(Nc3ncc4cnn(C5CCCCC5)c4n3)cc2)CC1 [Co. No. 60] |

Each compound was assayed against T1, AURORA A (Homo sapiens, UniProt O14965) (assay: In vitro filtration assay for AURORA A inhibitory activity). Details: Kemptide substrate, 1 μM unlabeled ATP, 25° C. 40 minutes, read-out: Aurora A see C.2 (pIC50) (converted).
T1 sequence (O14965 1-403): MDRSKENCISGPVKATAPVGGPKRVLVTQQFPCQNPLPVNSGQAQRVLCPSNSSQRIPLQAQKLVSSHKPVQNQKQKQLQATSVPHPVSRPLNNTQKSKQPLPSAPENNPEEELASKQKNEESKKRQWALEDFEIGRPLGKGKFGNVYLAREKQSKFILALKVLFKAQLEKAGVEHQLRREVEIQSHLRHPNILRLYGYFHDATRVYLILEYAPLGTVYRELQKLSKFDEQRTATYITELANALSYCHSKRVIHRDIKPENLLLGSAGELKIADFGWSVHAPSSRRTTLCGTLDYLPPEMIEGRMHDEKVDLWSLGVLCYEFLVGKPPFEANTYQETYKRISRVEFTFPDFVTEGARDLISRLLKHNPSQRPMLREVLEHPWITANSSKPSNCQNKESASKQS
Format: biochemical
Method: as §2, with “A” for “B”
The Aurora-A kinase reaction is performed at 25° C. for 40 minutes in a 96-well microtiterplate. The 25 μl reaction volume contains 12 mM MOPS pH 7, 0.4 mM EDTA, 0.002% Brij35, 1% glycerol, 0.02% beta-mercapto-ethanol, 0.2 mg/ml BSA, 1 μM unlabeled ATP, […] [^33P]-ATP, 200 μM Kemptide, 3 ng Aurora A/well and 0.2% compound in 100% DMSO.
as §3, §1

| IC50 [nM] | Structure (SMILES) |
| --- | --- |
| 50.1 | OCCCC1CCN(c2ccc(Nc3ncc4cnn(C5CCCC5)c4n3)cc2)CC1 [compound 13] |
| 158 | CN1CCN(c2ccc(Nc3ncc4cnn(C5CCCC5)c4n3)cc2)CC1 [compound 11] |
| 63.1 | c1cc(N2CCOCC2)ccc1Nc1ncc2cnn(C3CCCCC3)c2n1 [compound 12] |
| 3160 | O=c1[nH]n(C2CCCCC2)c2nc(Nc3ccc(N4CCC(CCCO)CC4)cc3)ncc12 [compound 94] |
| 7940 | CN1CCN(c2ccc(Nc3ncc4c(=O)[nH]n(C5CCCC5)c4n3)cc2)CC1 [compound 91] |
| 501 | c1cc(Nc2ncc3cnn([C@H]4C[C@@H]5CC[C@H]4C5)c3n2)ccc1CNCCN1CCOCC1 [compound 65] |
| 631 | CN1CCC(NCc2ccc(Nc3ncc4cnn([C@H]5C[C@@H]6CC[C@H]5C6)c4n3)cc2)CC1 [compound 69] |
| 158 | CN1CCC(N(Cc2ccc(Nc3ncc4cnn(C5CCCCC5)c4n3)cc2)C(=O)OC(C)(C)C)CC1 [compound 62] |
| 251 | c1ccc(N2CCN(Cc3ccc(Nc4ncc5cnn(C6CCCCC6)c5n4)cc3)CC2)nc1 [compound 35] |
| 1580 | CN1CCC(NCc2ccc(Nc3ncc4cnn(C5CCCCC5)c4n3)cc2)CC1 [Co. No. 60] |
